Test system: BL21*DE3 competent E. coli cells
Experiment: Screening for glyphosate resistance on plates
Assay type: cell-based
Details: M63+ agar plates, 50 mM glyphosate, 0.05 mM IPTG, 50 ug/ml kanamycin, 36 hours at 37° C.
Method: Library ligations were transformed into BL21*DE3 competent E. coli cells (Invitrogen). The transformations were performed according to the manufacturer's instructions with the following modifications. After incubation for 1 hour at 37° C. in SOC medium, the cells were sedimented by centrifugation (5 minutes, 1000×g, 4° C.). The cells were washed with 1 ml M63+, centrifuged again, and the supernatant decanted. The cells were washed a second time with 1 ml M63+ and resuspended in 200 ul M63+.
For selection of mutant GRG1 enzymes conferring glyphosate resistance to E. coli, the cells were plated onto M63+ agar medium plates containing 50 mM glyphosate, 0.05 mM IPTG (isopropyl-beta-D-thiogalactopyranoside), and 50 ug/ml kanamycin. M63+ medium contains 100 mM KH2PO4, 15 mM (NH4)2SO4, 50 μM CaCl2, 1 μM FeSO4, 50 μM MgCl2, 55 mM glucose, 25 mg/liter L-proline, 10 mg/liter thiamine HCl, sufficient NaOH to adjust the pH to 7.0, and 15 g/liter agar. The plates were incubated for 36 hours at 37° C.

L2-9 (PFINCGESGLSFRMFIPMVALSK; Clone L2-9)
glyphosate resistance (growth on glyphosate plates): glyphosate resistant

L2-7 (PFIECGESGLSIRLFTPLVALSK; Clone L2-7)
glyphosate resistance (growth on glyphosate plates): glyphosate resistant

L2-6 (PFIDCGESGLSFRMFVPIVALSK; Clone L2-6)
glyphosate resistance (growth on glyphosate plates): glyphosate resistant

L2-4 (PFIKCRESGLSMRMFAPMVALSK; Clone L2-4)
glyphosate resistance (growth on glyphosate plates): glyphosate resistant

L2-3 (PFIDCDESGLSIRMFTPIVALSK; Clone L2-3)
glyphosate resistance (growth on glyphosate plates): glyphosate resistant

L2-8 (PFIDCSESGLSFRMFAPLVALSK; Clone L2-8)
glyphosate resistance (growth on glyphosate plates): glyphosate resistant

L2-A (PFINCDESGLSFRMFTPIVALSK; Clone L2-A)
glyphosate resistance (growth on glyphosate plates): glyphosate resistant

Reference: US20070294785A1, “METHODS FOR […] DIVERSITY BY PERMUTATIONAL MUTAGENESIS” (Athenix Corporation, priority 2006, published 2007)
